We go through six compounds from US10167299B2, “1-(3-aminopropyl) substituted cyclic amine compounds, preparation method therefor, and pharmaceutical compositions and uses thereof” (SHANGHAI INSTITUTE OF MATERIA MEDICA, CHINESE ACADEMY OF …, priority 2013, dated 2019).

One data set deals with CCR5 (Homo sapiens (Human), UniProt P51681). The data set is described as follows: Calcium flux inhibition experiment. The class given is cell-based. The following applies: for IC50: HEK293/CCR5-Gα16 cell line, calcium flux, read-out: CCR5 IC50; for calcium influx inhibition effect in words, versus positive control compounds: conclusion from Table 1.
The next data set concerns CCR5 protein. In words: Thermal stability of protein test (CPM-assay). To be noted: for Tm (° C.): thermal stability of CCR5 protein with compound, CPM dye; for protein stability effect in words, versus positive control compound: conclusion from Table 2. The class given is binding. The method, boiled down:
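Purified, concentrated CCR5 protein (3–5 μg) was mixed with CPM dye and held 20 min at room temperature. It was then heated from 4 to 90 °C at 1 °C/min while fluorescence (excitation 387 nm, emission 436 nm) from CPM binding to exposed free cysteines was recorded. Tm is the midpoint of the signal change.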

Another data set has as its system HOS-CD4-CCR5 cells. The data set is described as follows: Toxicity test of compounds on HOS-CD4-CCR5 cells (MTT). The class given is cell-based. The following applies: HOS-CD4+-CCR5 cells (Table 8). In outline: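 MTT read-out (570 nm, 630 nm reference) after 3-day culture of HOS-CD4-CCR5 cells at 4×10^5/ml or 7-day culture of PHA-activated PBMC at 5×10^6/ml, with fresh medium added on day 3. Compounds were tested as six 5-fold dilutions in triplicate, in 10% FBS medium at 37 °C, 5% CO2.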

The next data set concerns the target CYP2C9 (Homo sapiens (Human), UniProt P11712). The data set is described as follows: CYP450 inhibition activity assay (Vivid kit) CYP2C9. The class given is in vitro ADME. To be noted: CYP450 subtype (μM) 2C9 (IC50).
In a further data set the target is CYP2C19 (Homo sapiens (Human), UniProt P33261). In words: CYP450 inhibition activity assay (Vivid kit) CYP2C19. The class given is in vitro ADME. The following applies: CYP450 subtype (μM) 2C19 (IC50).
A further data set concerns the target CYP2D6 (Homo sapiens (Human), UniProt P10635). The data set is described as follows: CYP450 inhibition activity assay (Vivid kit) CYP2D6. The class given is in vitro ADME. The following applies: CYP450 subtype (μM) 2D6 (IC50).
The next data set has as its target CYP3A4-M (Homo sapiens (Human), UniProt P08684). The data set is described as follows: CYP450 inhibition activity assay (Vivid kit) CYP3A4-M. The following applies: CYP450 subtype (μM) 3A4-M (IC50). As for the experimental part: (§1) VividR CYP450 Screening Kits can be used to evaluate the effects on CYP450 subtypes (CYP1A2, CYP2D6, CYP2C9, CYP2C19, CYP3A4-T and CYP3A4-M) and the substrate VividR in the kit can be metabolizd to a product which can emit strong fluorescence in an aqueous solution by specific CYP450 enzymes.
(§2) 1. The compounds to be tested and positive compound were added to corresponding wells and DMSO was added to control wells.
(§3) 2. CYP450 enzyme was added to the compounds to be tested, positive compound and DMSO control wells. The enzyme dilution was used to replace enzyme and added to DMSO wells as test background. The mixture was vibrated and mixed for 1 minute, and then incubated at room temperature for 20 minutes.
(§4) 3. NADP^+ regeneration system and the substrate were added to initiate the reaction and incubated at room temperature for 60 minutes.

The next data set deals with CYP3A4-T (Homo sapiens (Human), UniProt P08684). The data set is described as follows: CYP450 inhibition activity assay (Vivid kit) CYP3A4-T. To be noted: CYP450 subtype (μM) 3A4-T (IC50). As for the experimental part:
as §1, §2, §3, §4

Another data set concerns the target hERG (Homo sapiens (Human), UniProt Q12809).
For data set [1] the following is noted: rat, in vivo.

SMILES strings stand for the structures. Read-outs that look alike come from different tables or passages of the source.

CYP2D6, sequence (P10635 whole entry): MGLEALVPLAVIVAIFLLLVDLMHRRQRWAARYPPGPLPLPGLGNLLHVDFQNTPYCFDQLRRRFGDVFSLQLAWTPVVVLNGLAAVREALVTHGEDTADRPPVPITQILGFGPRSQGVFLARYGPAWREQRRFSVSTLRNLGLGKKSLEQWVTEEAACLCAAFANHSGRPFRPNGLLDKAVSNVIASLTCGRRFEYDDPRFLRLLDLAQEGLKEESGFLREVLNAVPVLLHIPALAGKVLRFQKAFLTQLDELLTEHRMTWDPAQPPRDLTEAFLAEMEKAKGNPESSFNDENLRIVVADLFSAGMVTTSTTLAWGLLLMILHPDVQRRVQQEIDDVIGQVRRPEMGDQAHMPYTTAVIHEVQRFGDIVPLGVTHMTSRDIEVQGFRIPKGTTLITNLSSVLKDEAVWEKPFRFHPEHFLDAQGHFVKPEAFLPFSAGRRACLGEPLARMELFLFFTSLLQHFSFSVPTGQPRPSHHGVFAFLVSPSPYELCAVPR
CYP3A4-T, sequence (P08684 whole entry): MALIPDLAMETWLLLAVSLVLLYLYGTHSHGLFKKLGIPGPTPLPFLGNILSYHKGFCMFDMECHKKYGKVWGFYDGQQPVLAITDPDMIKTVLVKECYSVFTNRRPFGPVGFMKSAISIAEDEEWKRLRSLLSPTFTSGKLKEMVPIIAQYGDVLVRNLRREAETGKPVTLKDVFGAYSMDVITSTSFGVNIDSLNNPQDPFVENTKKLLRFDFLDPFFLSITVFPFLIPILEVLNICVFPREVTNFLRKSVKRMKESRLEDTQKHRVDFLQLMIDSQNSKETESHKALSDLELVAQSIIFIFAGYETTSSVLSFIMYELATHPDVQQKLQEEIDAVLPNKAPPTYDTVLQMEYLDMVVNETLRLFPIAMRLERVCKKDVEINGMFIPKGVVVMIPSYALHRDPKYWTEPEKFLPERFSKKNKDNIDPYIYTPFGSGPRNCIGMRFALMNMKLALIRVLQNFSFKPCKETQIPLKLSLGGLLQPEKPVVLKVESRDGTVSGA
CYP3A4-M, sequence (P08684 whole entry): as above
hERG, sequence (Q12809 whole entry): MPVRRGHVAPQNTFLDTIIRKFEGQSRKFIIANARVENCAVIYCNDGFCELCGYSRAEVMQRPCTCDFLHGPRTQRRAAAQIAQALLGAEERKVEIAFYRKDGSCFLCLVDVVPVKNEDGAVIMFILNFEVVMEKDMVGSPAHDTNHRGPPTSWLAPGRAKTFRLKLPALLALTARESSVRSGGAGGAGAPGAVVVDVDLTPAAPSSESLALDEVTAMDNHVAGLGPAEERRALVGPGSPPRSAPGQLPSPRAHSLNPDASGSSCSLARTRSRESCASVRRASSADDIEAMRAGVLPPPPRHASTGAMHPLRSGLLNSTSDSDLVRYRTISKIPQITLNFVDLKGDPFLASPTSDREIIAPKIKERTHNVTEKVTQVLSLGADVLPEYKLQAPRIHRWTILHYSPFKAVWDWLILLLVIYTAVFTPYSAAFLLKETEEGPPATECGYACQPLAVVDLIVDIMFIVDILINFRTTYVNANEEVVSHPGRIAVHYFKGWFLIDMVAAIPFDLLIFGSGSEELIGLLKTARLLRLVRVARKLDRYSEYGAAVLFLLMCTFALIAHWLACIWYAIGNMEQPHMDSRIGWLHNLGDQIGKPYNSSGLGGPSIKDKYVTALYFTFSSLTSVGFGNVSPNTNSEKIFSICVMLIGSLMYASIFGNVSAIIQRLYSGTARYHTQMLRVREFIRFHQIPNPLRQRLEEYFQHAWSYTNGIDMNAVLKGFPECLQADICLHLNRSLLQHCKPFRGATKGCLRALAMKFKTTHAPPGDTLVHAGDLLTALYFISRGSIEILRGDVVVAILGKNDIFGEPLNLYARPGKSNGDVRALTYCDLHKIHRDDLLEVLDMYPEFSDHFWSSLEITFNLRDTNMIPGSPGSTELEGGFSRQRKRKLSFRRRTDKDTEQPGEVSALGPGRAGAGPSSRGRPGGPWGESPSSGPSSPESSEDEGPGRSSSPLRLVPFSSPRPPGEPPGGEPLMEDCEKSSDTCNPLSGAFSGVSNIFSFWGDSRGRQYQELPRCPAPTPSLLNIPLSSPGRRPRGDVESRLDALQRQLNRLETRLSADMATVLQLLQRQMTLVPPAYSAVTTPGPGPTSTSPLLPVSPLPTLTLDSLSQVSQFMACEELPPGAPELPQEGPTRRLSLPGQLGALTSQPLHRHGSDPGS
CCR5, sequence (P51681 whole entry): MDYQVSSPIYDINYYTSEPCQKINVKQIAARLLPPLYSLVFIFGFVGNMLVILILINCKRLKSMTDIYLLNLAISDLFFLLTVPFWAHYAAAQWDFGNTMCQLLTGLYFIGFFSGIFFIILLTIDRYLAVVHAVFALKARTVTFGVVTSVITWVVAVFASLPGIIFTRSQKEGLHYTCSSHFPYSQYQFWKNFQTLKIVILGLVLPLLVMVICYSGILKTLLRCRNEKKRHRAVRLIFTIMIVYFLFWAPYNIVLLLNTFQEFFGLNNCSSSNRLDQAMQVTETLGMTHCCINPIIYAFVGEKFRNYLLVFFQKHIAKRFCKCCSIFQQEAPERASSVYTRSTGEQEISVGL
CYP2C19, sequence (P33261 whole entry): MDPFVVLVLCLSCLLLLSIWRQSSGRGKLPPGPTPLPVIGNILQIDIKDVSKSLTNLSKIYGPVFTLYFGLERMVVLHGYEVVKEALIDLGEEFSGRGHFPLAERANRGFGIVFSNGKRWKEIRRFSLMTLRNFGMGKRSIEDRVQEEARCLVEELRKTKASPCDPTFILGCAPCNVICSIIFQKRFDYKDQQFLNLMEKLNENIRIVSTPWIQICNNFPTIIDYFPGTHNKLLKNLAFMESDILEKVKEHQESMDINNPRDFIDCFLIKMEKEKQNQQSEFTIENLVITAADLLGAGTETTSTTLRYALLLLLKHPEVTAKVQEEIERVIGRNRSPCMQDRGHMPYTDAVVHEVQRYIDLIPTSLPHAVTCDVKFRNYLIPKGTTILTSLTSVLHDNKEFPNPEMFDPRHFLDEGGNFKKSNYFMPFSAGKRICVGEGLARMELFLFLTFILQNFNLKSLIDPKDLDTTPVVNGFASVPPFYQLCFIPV
CYP2C9, sequence (P11712 whole entry): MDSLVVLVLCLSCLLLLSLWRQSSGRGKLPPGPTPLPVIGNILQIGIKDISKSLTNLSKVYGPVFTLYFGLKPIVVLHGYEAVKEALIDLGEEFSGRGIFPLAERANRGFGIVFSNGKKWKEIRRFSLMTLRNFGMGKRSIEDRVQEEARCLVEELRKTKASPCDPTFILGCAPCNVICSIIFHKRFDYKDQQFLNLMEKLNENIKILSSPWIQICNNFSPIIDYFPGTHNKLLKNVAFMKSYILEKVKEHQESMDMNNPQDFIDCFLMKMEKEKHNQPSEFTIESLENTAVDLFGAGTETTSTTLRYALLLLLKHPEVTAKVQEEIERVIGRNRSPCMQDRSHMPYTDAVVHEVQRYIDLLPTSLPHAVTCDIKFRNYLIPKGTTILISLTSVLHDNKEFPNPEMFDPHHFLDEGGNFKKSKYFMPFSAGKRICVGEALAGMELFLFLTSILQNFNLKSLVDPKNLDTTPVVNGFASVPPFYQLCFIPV
Method for hERG: CHO-hERG cells which have been incubated overnight were added with sample buffer and incubated for 90 minutes at room temperature in darkness.
The sample buffer was removed and assay buffer was added.
The compound is added to the cell plate and incubated for 20 minutes in darkness.
Cell plate was placed into FDSS. The fluorescence signal was recorded every second for 10 seconds. Exciting buffer was added to the cells at the 10th second and the fluorescence signal was recorded every second for 180 seconds

Consider `Cc1nnc(C(C)C)n1C1CC2CCC(C1)N2CC[C@H](NC(=O)C1CCC(F)(F)CC1)c1ccsc1` (stereo partly drawn) [Compound 22, 4,4-difluoro-N-[(1S)-3-[exo-3-(3-isopropyl-5-methyl-4H-1,2,4-triazol-4-yl)-8-azabicyclo[3.2.1]octane-8-yl]-1-(thiophen-3-yl)propyl]cyclohexane-1-carboxamide], for which the IC50 on CCR5 was 0.00105 µM; against CYP2C9 it was over 25 µM; against CYP2C19, over 25 µM; against CYP2D6 it was over 25 µM; on CYP3A4-M it was over 25 µM; against CYP3A4-T it was over 25 µM. For the same compound, the “calcium influx inhibition effect in words, versus positive control compounds” value at CCR5 is “better than the positive control compounds”. The “Tm (° C.)” value with CCR5 protein turned out to be 68.21 °C. The 50% cytotoxic concentration (CC50) in the data set with HOS-CD4-CCR5 cells is over 800 µg/mL. For the same compound, the “hERG inhibition activity in words, versus positive control compounds” value at hERG is on record as “better that those of positive control compounds”. Further, the “CLz” value in [1] (male, 10 mg/kg) is 40 mL/min/kg. In data set [1] (male, po, 20 mg/kg), the “AUC0-t ng/mL * h” value came to 1206 ng·h/mL.
As for `Cc1nnc(C(C)C)n1C1CC2CCC(C1)N2CC[C@H](NC(=O)C1CCCC1)c1cccs1` (stereo partly drawn) [Compound 18, N-[(1S)-3-[exo-3-(3-isopropyl-5-methyl-4H-1,2,4-triazol-4-yl)-8-azabicyclo[3.2.1]octane-8-yl]-1-(thiophen-2-yl)propyl]cyclopentane-1-carboxamide], the half-maximal inhibitory concentration (IC50) at CCR5 is 0.00373 µM; on CYP2C9, over 25 µM; against CYP2C19, over 25 µM; against CYP2D6 it was 16.8 µM; against CYP3A4-M, over 25 µM; against CYP3A4-T, over 25 µM. Further, the “calcium influx inhibition effect in words, versus positive control compounds” value at CCR5 is “better than the positive control compounds”. In addition, the “protein stability effect in words, versus positive control compound” value with CCR5 protein was “comparable with the positive control compound”. Also, the “Tm (° C.)” value in the data set with CCR5 protein was found to be 71.73 °C. Further, in [1] (male, 10 mg/kg), the “CLz” value was found to be 104 mL/min/kg. The “AUC0-t ng/mL * h” value in [1] (male, po, 20 mg/kg) turned out to be 2801.1 ng·h/mL.
In the case of `Cc1ccc([C@H](CCN2C3CCC2CC(n2c(C)nnc2C(C)C)C3)NC(=O)C2CCC(F)(F)CC2)s1` (stereo partly drawn) [Compound 29, 4,4-difluoro-N-[(1S)-3-[exo-3-(3-isopropyl-5-methyl-4H-1,2,4-triazol-4-yl)-8-azabicyclo[3.2.1]octane-8-yl]-1-(5-methylthiophen-2-yl)propyl]cyclohexane-1-carboxamide], the “CC50” value in the data set with HOS-CD4-CCR5 cells was over 200 µg/mL. Besides, the half-inhibitory concentration (IC50) at CYP2C9 is over 25 µM; against CYP2C19 it was over 25 µM; against CYP2D6, over 25 µM; against CYP3A4-M it was 10.9 µM; against CYP3A4-T it was 23.4 µM; against hERG it was 8.44 µM. In addition, the “hERG inhibition activity in words, versus positive control compounds” value on hERG was “better that those of positive control compounds”. Moreover, the “AUC0-t ng/mL * h” value in data set [1] (male, 10 mg/kg) stood at 2330.2 ng·h/mL; in data set [1] (male, po, 20 mg/kg), 1870.7 ng·h/mL. Also, the “CLz” value in data set [1] (10 mg/kg) was determined as 71.5 mL/min/kg.
In the case of `Cc1nnc(C(C)C)n1C1CC2CCC(C1)N2CC[C@H](NC(=O)C1CCC(F)(F)CC1)c1cccs1` (stereo partly drawn) [Compound 14, 4,4-difluoro-N-[(1S)-3-[exo-3-(3-isopropyl-5-methyl-4H-1,2,4-triazol-4-yl)-8-azabicyclo[3.2.1]octane-8-yl]-1-(thiophen-2-yl)propyl]cyclohexane-1-carboxamide], on CCR5, the IC50 stood at 0.00233 µM and the “calcium influx inhibition effect in words, versus positive control compounds” value is “better than the positive control compounds”. Further, in the data set with CCR5 protein, the “Tm (° C.)” value was determined as 68.10 °C. Besides, in data set [1] (male, 10 mg/kg), the “CLz” value turned out to be 23.7 mL/min/kg. The “AUC0-t ng/mL * h” value in data set [1] (male, po, 20 mg/kg) came out at 1108 ng·h/mL.
Consider `Cc1nnc(C(C)C)n1C1CC2CCC(C1)N2CC[C@H](NC(=O)C1CCCCC1)c1cccs1` (some centres unmarked) [Compound 16], for which the IC50 at CCR5 is 0.00223 µM; against CYP2C9 it was over 25 µM; at CYP2C19, over 25 µM; against CYP2D6 it was 15.1 µM; on CYP3A4-M it was 12.3 µM; on CYP3A4-T, 21.7 µM. The midpoint of inhibition on hERG (human), the IC50, lay at 3.02 µM. Besides, at CCR5, the “calcium influx inhibition effect in words, versus positive control compounds” value is listed as “better than the positive control compounds”. Further, in the data set on CCR5 protein, the “protein stability effect in words, versus positive control compound” value is “comparable with the positive control compound”. In the data set on CCR5 protein, the “Tm (° C.)” value stood at 71.32 °C. In addition, the “CLz” value in data set [1] (male, 10 mg/kg) came to 32.7 mL/min/kg. The “AUC0-t ng/mL * h” value in data set [1] (male, po, 20 mg/kg) is 1512.3 ng·h/mL.
For `Cc1nnc(C(C)C)n1C1CCN(CC[C@H](NC(=O)C2CCCC2)c2cccs2)CC1` [Compound 17, N-[(1S)-3-[4-(3-isopropyl-5-methyl-4H-1,2,4-triazol-4-yl)-piperidin-1-yl]-1-(thiophen-2-yl)propyl]cyclopentane-1-carboxamide], the concentration for half-maximal inhibition (IC50) was 0.00255 µM on CCR5; over 25 µM at CYP2C9; over 25 µM against CYP2C19; over 25 µM against CYP2D6; over 25 µM at CYP3A4-M; over 25 µM at CYP3A4-T. Moreover, the “calcium influx inhibition effect in words, versus positive control compounds” value at CCR5 was “better than the positive control compounds”. The “Tm (° C.)” value in the data set with CCR5 protein was determined as 66.97 °C.

The IC50 is the concentration that inhibits the measured activity by half. One may read the CC50 as the concentration giving 50% cytotoxicity.
